Read-outs that look alike come from different tables or passages of the source. Bridge positions count the residues as written; N and C are the ends. Ends that are not written are not given here. Peptide text beside a SMILES is read from it.
Tests used:
[1] = system: thapsigargin-induced IFN-g production in human whole blood; format: cell-based
[2] = system: thapsigargin-induced IL-2 production in human whole blood
[3] = read-out: Analogue Activity (IC50) WB/IFNg
[4] = read-out: Analogue Activity (IC50) WB/IL-2

| Molecule | IC50 [1, 3] [nM] | IC50 [2, 4] [nM] | IC50 ([1]; read-out: Average IC50 IFNg) [nM] | IC50 ([2]; read-out: Average IC50 IL-2) [nM] | further results |
| --- | --- | --- | --- | --- | --- |
| CC[C@H](C)[C@@H]1NC(=O)[C@H](CCCCN)NC(=O)[C@@H](NC(=O)[C@H](CCCCN)NC(=O)[C@H](C)NC(=O)[C@H](CC(N)=O)NC(=O)[C@@H](NC(=O)[C@@H](NC(=O)[C@@H](NC(=O)CN)C(C)C)[C@@H](C)CC)[C@@H](C)CC)CSSC[C@@H]2NC(=O)[C@H](CCCCN)NC(=O)CNC(=O)[C@H](Cc3ccccc3)NC(=O)[C@H](CCCNC(=N)N)NC(=O)[C@H](CCSC)NC(=O)CNC(=O)[C@H](C)NC(=O)[C@H](CCCCN)NC(=O)[C@H](CCCCN)NC(=O)[C@@H]3CSSC[C@@H](C(=O)N[C@H](C(=O)N4CCC[C@H]4C(=O)N[C@@H](CCCCN)C(=O)O)[C@@H](C)O)NC(=O)[C@H](Cc4c[nH]cn4)NC(=O)[C@H](CSSC[C@H](NC(=O)[C@H](CCC(N)=O)NC(=O)[C@H](CCCNC(=N)N)NC(=O)[C@H](CO)NC1=O)C(=O)N[C@@H](CC(C)C)C(=O)N[C@@H](CCC(=O)O)C(=O)N1CCC[C@H]1C(=O)N3)NC(=O)[C@H](CCCCN)NC(=O)CNC(=O)[C@H](CC(N)=O)NC(=O)[C@H](CCSC)NC2=O [V6A] (H-GVIINAKCKISRQCLEPCKKAGMRFGKCMNGKCHCTPK-OH; disulfide 8-28, 14-33, 18-35) | 0.0805 | 0.0733 | – | – | – |
| GVIIAVKCKISRQCLEPCKKAGMRFGKCMNGKCHCTPK [Ala-5 (SEQ ID No: 1404)] | – | – | 0.067 | 0.0679 | – |
| CC[C@H](C)[C@@H]1NC(=O)[C@H](CCCCN)NC(=O)[C@@H](NC(=O)[C@H](CCCCN)NC(=O)[C@@H](NC(=O)[C@H](CC(N)=O)NC(=O)[C@@H](NC(=O)[C@@H](NC(=O)[C@@H](NC(=O)CN)C(C)C)[C@@H](C)CC)[C@@H](C)CC)C(C)C)CSSC[C@@H]2NC(=O)[C@H](CCCCN)NC(=O)CNC(=O)[C@H](Cc3ccccc3)NC(=O)[C@H](CCCNC(=N)N)NC(=O)[C@H](CCSC)NC(=O)CNC(=O)[C@H](C)NC(=O)[C@H](CCCCN)NC(=O)[C@H](CCCCN)NC(=O)[C@@H]3CSSC[C@@H](C(=O)N[C@H](C(=O)N4CCC[C@H]4C(=O)N[C@@H](CCCCN)C(=O)O)[C@@H](C)O)NC(=O)[C@H](Cc4c[nH]cn4)NC(=O)[C@H](CSSC[C@H](NC(=O)[C@H](CCCNC(=N)N)NC(=O)[C@H](CCCNC(=N)N)NC(=O)[C@H](CO)NC1=O)C(=O)N[C@@H](CC(C)C)C(=O)N[C@@H](CCC(=O)O)C(=O)N1CCC[C@H]1C(=O)N3)NC(=O)[C@H](CCCCN)NC(=O)CNC(=O)[C@H](CC(N)=O)NC(=O)[C@H](CCSC)NC2=O [Q13R] (H-GVIINVKCKISRRCLEPCKKAGMRFGKCMNGKCHCTPK-OH; disulfide 8-28, 14-33, 18-35) | 0.172 | 0.16 | – | – | – |
| des1-7, E16K, K20D, des36-38 (CKISRQCLKPCKDAGMRFGKCMNGKCHC-NH2; ends and bridges not checked) | – | – | – | – | IC50 ([1]; read-out: WB/IFNg (IC50)): 8.34 nM; IC50 ([2]; read-out: WB/IL-2 (IC50)): 8.18 nM |
| GVIINVKCAISRQCLEPCKKAGMRFGKCMNGKCHCTPK [Ala-9 (SEQ ID No: 1407)] | – | – | 0.0711 | 0.0796 | – |
| CC[C@H](C)[C@@H]1NC(=O)[C@H](CCCCN)NC(=O)[C@@H](NC(=O)[C@H](CCCCN)NC(=O)[C@@H](NC(=O)[C@H](CC(N)=O)NC(=O)[C@@H](NC(=O)[C@@H](NC(=O)[C@H](CCC(=O)O)NC(=O)CN)[C@@H](C)CC)[C@@H](C)CC)C(C)C)CSSC[C@@H]2NC(=O)[C@H](CCCCN)NC(=O)CNC(=O)[C@H](Cc3ccccc3)NC(=O)[C@H](CCCNC(=N)N)NC(=O)[C@H](CCSC)NC(=O)CNC(=O)[C@H](C)NC(=O)[C@H](CCCCN)NC(=O)[C@H](CCCCN)NC(=O)[C@@H]3CSSC[C@@H](C(=O)N[C@H](C(=O)N4CCC[C@H]4C(=O)N[C@@H](CCCCN)C(=O)O)[C@@H](C)O)NC(=O)[C@H](Cc4c[nH]cn4)NC(=O)[C@H](CSSC[C@H](NC(=O)[C@H](CCC(N)=O)NC(=O)[C@H](CCCNC(=N)N)NC(=O)[C@H](CO)NC1=O)C(=O)N[C@@H](CC(C)C)C(=O)N[C@@H](CCC(=O)O)C(=O)N1CCC[C@H]1C(=O)N3)NC(=O)[C@H](CCCCN)NC(=O)CNC(=O)[C@H](CC(N)=O)NC(=O)[C@H](CCSC)NC2=O [V2E] (H-GEIINVKCKISRQCLEPCKKAGMRFGKCMNGKCHCTPK-OH; disulfide 8-28, 14-33, 18-35) | 0.184 | 0.097 | – | – | – |
| GVIINVKCKISRQCLEPCKKAGMRFGACMNGKCHCTPK [Ala-27 (SEQ ID No: 1423)] | – | – | 1.58 | 3.45 | – |
| GVIINVKCKISRQCLEPCKKAGARFGKCMNGKCHCTPK [Ala-23 (SEQ ID No: 1419)] | – | – | 0.275 | 0.275 | – |
| CC[C@H](C)[C@@H]1NC(=O)[C@H](CCCCN)NC(=O)[C@@H](NC(=O)[C@H](CCCCN)NC(=O)[C@@H](NC(=O)[C@H](CC(N)=O)NC(=O)[C@@H](NC(=O)[C@@H](NC(=O)[C@@H](NC(=O)CN)C(C)C)[C@@H](C)CC)[C@@H](C)CC)C(C)C)CSSC[C@@H]2NC(=O)[C@H](CCCCN)NC(=O)CNC(=O)[C@H](Cc3ccccc3)NC(=O)[C@H](CCCNC(=N)N)NC(=O)[C@H](CCSC)NC(=O)CNC(=O)[C@H](C)NC(=O)[C@H](CCCCN)NC(=O)[C@H](CCCCN)NC(=O)[C@@H]3CSSC[C@@H](C(=O)N[C@H](C(=O)N4CCC[C@H]4C(=O)N[C@@H](CCCNC(=N)N)C(=O)O)[C@@H](C)O)NC(=O)[C@H](Cc4c[nH]cn4)NC(=O)[C@H](CSSC[C@H](NC(=O)[C@H](CCC(N)=O)NC(=O)[C@H](CCCNC(=N)N)NC(=O)[C@H](CO)NC1=O)C(=O)N[C@@H](CC(C)C)C(=O)N[C@@H](CCC(=O)O)C(=O)N1CCC[C@H]1C(=O)N3)NC(=O)[C@H](CCCCN)NC(=O)CNC(=O)[C@H](CC(N)=O)NC(=O)[C@H](CCSC)NC2=O [K38R] (H-GVIINVKCKISRQCLEPCKKAGMRFGKCMNGKCHCTPR-OH; disulfide 8-28, 14-33, 18-35) | 0.04 | 0.039 | – | – | – |
| CC[C@H](C)[C@@H]1NC(=O)[C@H](CCCCN)NC(=O)[C@@H](NC(=O)[C@H](C)NC(=O)[C@@H](NC(=O)[C@H](CC(N)=O)NC(=O)[C@@H](NC(=O)[C@@H](NC(=O)[C@@H](NC(=O)CN)C(C)C)[C@@H](C)CC)[C@@H](C)CC)C(C)C)CSSC[C@@H]2NC(=O)[C@H](CCCCN)NC(=O)CNC(=O)[C@H](Cc3ccccc3)NC(=O)[C@H](CCCNC(=N)N)NC(=O)[C@H](CCSC)NC(=O)CNC(=O)[C@H](C)NC(=O)[C@H](CCCCN)NC(=O)[C@H](CCCCN)NC(=O)[C@@H]3CSSC[C@@H](C(=O)N[C@H](C(=O)N4CCC[C@H]4C(=O)N[C@@H](CCCCN)C(=O)O)[C@@H](C)O)NC(=O)[C@H](Cc4c[nH]cn4)NC(=O)[C@H](CSSC[C@H](NC(=O)[C@H](CCC(N)=O)NC(=O)[C@H](CCCNC(=N)N)NC(=O)[C@H](CO)NC1=O)C(=O)N[C@@H](CC(C)C)C(=O)N[C@@H](CCC(=O)O)C(=O)N1CCC[C@H]1C(=O)N3)NC(=O)[C@H](CCCCN)NC(=O)CNC(=O)[C@H](CC(N)=O)NC(=O)[C@H](CCSC)NC2=O [K7A] (H-GVIINVACKISRQCLEPCKKAGMRFGKCMNGKCHCTPK-OH; disulfide 8-28, 14-33, 18-35) | 0.0591 | 0.0675 | – | – | – |

Source: patent publication US7820623B2 (priority 2006, dated 2010)
